Measurements from patent publication US8389508B2 (Glaxo Group Limited, priority 2010, dated 2013).
Where a name gives a salt, the structure may show the parent alone.

Legend:
[1] = biological target: T1, human Endothelial Differentiation G-protein Coupled Receptor 3 (EDG3), S1P3 receptor (Homo sapiens, UniProt Q99500); assay: S1P3 Assay (GeneBLAzer EDG3-Ga15-NFAT-bla HEK 293T beta-lactamase reporter, agonist dose response); format: cell-based; details: EDG3-Ga15-NFAT-bla HEK 293T cells, blue/green emission ratio, 10 point dose response, free base or salt form; read-out: pEC50 (S1P3 assay) (converted)
T1 construct: expressed in transfected cells; host or cells: GeneBLAzer EDG3-Ga15-NFAT-bla HEK 293T
Description: GeneBLAzer EDG3-Ga15-NFAT-bla HEK 293T cells (contain the human Endothelial Differentiation G-protein Coupled Receptor 3 (EDG3) and a beta-lactamase reporter gene under control of a NFAT response element and a promiscuous G Protein, Ga15, stably integrated into the GeneBLAzer Ga15-NFAT-bla HEK 293T cell line) were harvested from growth medium and suspended in assay medium (90% DMEM, 10% Charcoal-stripped FBS, 0.1 mM NEAA, 25 mM HEPES (pH 7.3), 100 U/ml penicillin, 100 μg/ml streptomycin) at a density of […]. All test compounds were dissolved in DMSO at a concentration of 10 mM and were prepared in 100% DMSO to provide 10 point dose response curves. Test compounds in the free base or in a salt form were prepared by Velocity 11 Bravo automation (Agilent) were added to wells in columns 2-11 and 13-22; DMSO was added to wells in columns 12 and 23 as unstimulated controls and assay medium was added to wells in columns 1 and 24 as cell-free controls. An S1P3 agonist was added to wells in row 2, columns 2-11 as stimulated controls and test compounds were added to wells in row 2, columns 13-22 and rows 3-15, columns 2-11/13-22 (row 1 and 16 were empty and not used). Compounds in solution were added to the assay plate (Greiner 781090) using an Echo (Labcyte) dose-response program (50 nl/well). The unstimulated and cell-free controls were loaded with 50 nl/well pure DMSO to ensure that the DMSO concentration was constant across the plate for all assays.
50 μl of the cell suspension was added to each well in columns 2-23 of the plate (˜10,000 cells per well). 50 μl of assay medium was added to each well in the cell-free controls (columns 1 and 24). The cells were incubated overnight at 37° C./5% CO2.
(§1) 10 μl of 6× substrate mixture (LiveBLAzer™-FRET B/G substrate (CCF4-AM) Cat # K1096 from Invitrogen, Inc.) was added to each well using Bravo automation and the plates incubated at room temperature for 2 h in the dark. The plate was finally read on EnVision using one excitation channel (409 nm) and two emission channels (460 nm and 530 nm).
(§2) The blue/green emission ratio (460 nm/530 nm) was calculated for each well, by dividing the background-subtracted Blue emission values by the background-subtracted Green emission values. The dose response curve is based on sigmoidal dose-response model. All ratio data was normalized based upon the maximum emission ratio of positive control and minimum emission ratio of negative control (DMSO) on each plate. The intrinsic activity (IA) of each compound is defined as relative response normalised to a reference compound, whose maximum response is defined as 100% after curve fitting.

[2] = biological target: T2, human Endothelial Differentiation Gene 1 (EDG1), S1P1 receptor (Homo sapiens, UniProt P21453); assay: S1P1 Assay (Tango EDG1-bla/U2OS beta-lactamase reporter, agonist dose response); format: cell-based; details: EDG1-bla/U2OS cells, blue/green emission ratio, 10 point dose response, free base or salt form; read-out: pEC50 (S1P1 assay) (converted)
T2 construct: TEV protease site; Gal4-VP16 transcription factor; expressed in transfected cells; host or cells: EDG1-bla/U2OS (Tango GPCR-bla U2OS parental cell line)
Description: Recombinant EDG1-bla/U2OS cells (contain the human Endothelial Differentiation Gene 1 (EDG1) linked to a TEV protease site and a Gal4-VP16 transcription factor stably integrated into the Tango GPCR-bla U2OS parental cell line) were harvested from growth medium and passaged into assay medium (Invitrogen Freestyle Expression Medium). The cells were starved for 24 hours at 37° C., 5% CO2, harvested and resuspended in assay medium at a density of ˜200,000 cells/ml. All test compounds were dissolved in DMSO at a concentration of 10 mM and were prepared in 100% DMSO to provide 10 point dose response curves. Test compounds in the free base or in a salt form were prepared by Velocity11 Bravo automation (Agilent) were added to wells in columns 2-11 and 13-22; DMSO was added to wells in columns 12 and 23 as unstimulated controls and assay medium was added to wells in columns 1 and 24 as cell-free controls. An S1P1 agonist was added to wells in row 2, columns 2-11 as stimulated controls and test compounds were added to wells in row 2, columns 13-22 and rows 3-15, columns 2-11/13-22 (row 1 and 16 were empty and not used). Compounds in solution were added to the assay plate (Greiner 781090) using an Echo (Labcyte) dose-response program (50 nl/well). The unstimulated and cell-free controls were loaded with 50 nl/well pure DMSO to ensure that the DMSO concentration was constant across the plate for all assays. 50 μl of the cell suspension was added to each well in columns 2-23 of the plate (˜10,000 cells per well). 50 μl of assay medium was added to each well in the cell-free controls (columns 1 and 24). The cells were incubated overnight at 37° C./5% CO2.
as §1, §2

T1 sequence (Q99500 whole entry): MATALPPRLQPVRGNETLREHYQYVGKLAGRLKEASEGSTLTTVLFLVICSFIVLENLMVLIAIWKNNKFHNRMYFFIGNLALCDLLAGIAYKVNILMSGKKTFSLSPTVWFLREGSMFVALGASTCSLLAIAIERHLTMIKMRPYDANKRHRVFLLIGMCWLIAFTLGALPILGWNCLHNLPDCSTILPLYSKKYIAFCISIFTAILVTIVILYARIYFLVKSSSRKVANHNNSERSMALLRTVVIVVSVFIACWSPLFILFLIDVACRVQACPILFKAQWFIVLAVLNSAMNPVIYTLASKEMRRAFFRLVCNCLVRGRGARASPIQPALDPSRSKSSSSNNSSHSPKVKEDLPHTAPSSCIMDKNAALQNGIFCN
T2 sequence (P21453 whole entry, the tested form may be a part): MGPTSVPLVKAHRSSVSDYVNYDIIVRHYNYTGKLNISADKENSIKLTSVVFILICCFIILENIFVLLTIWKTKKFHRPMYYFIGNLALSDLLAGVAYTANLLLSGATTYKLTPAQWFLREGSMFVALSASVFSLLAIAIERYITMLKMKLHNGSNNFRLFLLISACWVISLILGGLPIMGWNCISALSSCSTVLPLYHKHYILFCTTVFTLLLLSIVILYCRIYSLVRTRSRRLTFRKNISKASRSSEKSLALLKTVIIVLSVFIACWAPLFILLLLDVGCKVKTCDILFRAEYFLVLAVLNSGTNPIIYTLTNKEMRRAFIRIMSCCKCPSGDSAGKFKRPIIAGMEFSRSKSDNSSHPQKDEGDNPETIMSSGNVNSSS

SMILES | EC50 [1] [µM] | EC50 [2] [µM]
CCc1c(CN2CCC(C(=O)O)CC2)cccc1-c1nnc(-c2ccc(OC(C)C)c(C(F)(F)F)c2)s1 [Example 1, 1-[(2-ethyl-3-{5-[4-[(1-methylethyl)oxy]-3-(trifluoromethyl)phenyl]-1,3,4-thiadiazol-2-yl}phenyl)methyl]-4-piperidinecarboxylic acid] | > 3.16 | < 0.001
CCc1c(CCN2CC(C(=O)O)C2)cccc1-c1nnc(-c2ccc(OC(C)C)c(C(F)(F)F)c2)s1 [Example 7, 1-[2-(2-ethyl-3-{5-[4-[(1-methylethyl)oxy]-3-(trifluoromethyl)phenyl]-1,3,4-thiadiazol-2-yl}phenyl)ethyl]-3-azetidinecarboxylic acid trifluoroacetate] | > 3.16 | < 0.001
CCc1c(CN2CC(C(=O)O)C2)cccc1-c1nnc(-c2ccc(CC(C)C)c(C#N)c2)s1 [Example 9, 1-[(3-{5-[3-cyano-4-(2-methylpropyl)phenyl]-1,3,4-thiadiazol-2-yl}-2-ethylphenyl)methyl]-3-azetidinecarboxylic acid trifluoroacetate] | > 10 | < 0.001
COc1c(CCN2CCC(C(=O)O)CC2)cc(F)cc1-c1nnc(-c2ccc(OC(C)C)c(C(F)(F)F)c2)s1 [Example 13, 1-{2-[5-fluoro-3-{5-[4-[(1-methylethyl)oxy]-3-(trifluoromethyl)phenyl]-1,3,4-thiadiazol-2-yl}-2-(methyloxy)phenyl]ethyl}-4-piperidinecarboxylic acid] | > 10 | < 0.1
CCc1c(-c2nnc(-c3ccc(OC(C)C)c(Cl)c3)s2)cccc1C1CCN(CCC(=O)O)CC1 [Example 95, 3-{4-[3-(5-{3-chloro-4-[(1-methylethyl)oxy]phenyl}-1,3,4-thiadiazol-2-yl)-2-ethylphenyl]-1-piperidinyl}propanoic acid trifluoroacetate] | > 3.16 | –

Continued, values first:

EC50 [1] [µM] | EC50 [2] [µM] | SMILES
> 3.16 | < 0.001 | CCc1c(CN2CCC(C(=O)O)CC2)cccc1-c1nnc(-c2ccc(CC(C)C)c(C#N)c2)s1 [Example 8, 1-[(3-{5-[3-cyano-4-(2-methylpropyl)phenyl]-1,3,4-thiadiazol-2-yl}-2-ethylphenyl)methyl]-4-piperidinecarboxylic acid trifluoroacetate]
> 3.16 | < 0.001 | CCc1c(CCN2CC(C(=O)O)C2)cccc1-c1nnc(-c2ccc(CC(C)C)c(C#N)c2)s1 [Example 10, 1-[2-(3-{5-[3-cyano-4-(2-methylpropyl)phenyl]-1,3,4-thiadiazol-2-yl}-2-ethylphenyl)ethyl]-3-azetidinecarboxylic acid]
> 3.16 | < 0.001 | CCc1c(CCN2CCC(C(=O)O)CC2)cccc1-c1nnc(-c2ccc(CC(C)C)c(C#N)c2)s1 [Example 11, 1-[2-(3-{5-[3-cyano-4-(2-methylpropyl)phenyl]-1,3,4-thiadiazol-2-yl}-2-ethylphenyl)ethyl]-4-piperidinecarboxylic acid]
> 3.16 | < 0.001 | CCc1c(CCN2CCC(C(=O)O)C2)cccc1-c1nnc(-c2ccc(OC(C)C)c(Cl)c2)s1 (centres unmarked) [Example 12, 1-{2-[3-(5-{3-chloro-4-[(1-methylethyl)oxy]phenyl}-1,3,4-thiadiazol-2-yl)-2-ethylphenyl]ethyl}-3-pyrrolidinecarboxylic acid trifluoroacetate]
> 10 | ≤ 0.01 | COc1c(CCN2CC(C(=O)O)C2)cc(F)cc1-c1nnc(-c2ccc(OC(C)C)c(C(F)(F)F)c2)s1 [Example 14, 1-{2-[5-fluoro-3-{5-[4-[(1-methylethyl)oxy]-3-(trifluoromethyl)phenyl]-1,3,4-thiadiazol-2-yl}-2-(methyloxy)phenyl]ethyl}-3-azetidinecarboxylic acid]
> 3.16 | – | CCc1c(-c2nnc(-c3ccc(OC(C)C)c(Cl)c3)s2)cccc1C1CCN(CCCC(=O)O)CC1 [Example 97, 4-{4-[3-(5-{3-chloro-4-[(1-methylethyl)oxy]phenyl}-1,3,4-thiadiazol-2-yl)-2-ethylphenyl]-1-piperidinyl}butanoic acid trifluoroacetate]
